Test results: patent publication US5789541A, “Compounds for inhibition of proteolysis” (President and Fellows of Harvard College, priority 1995, dated 1998)
Read-outs that look alike come from different tables or passages of the source. Values belong to the molecule of their own block, whether it stands above or below them. Non-standard residues stand in square brackets, D forms with d. No end group written: not given here. *: point of attachment. Farnesyl = CC(C)=CCC/C(C)=C/CC/C(C)=C/C*

Experiments:
Assay type in all cases: biochemical
[1] = test system: protease of bovine liver microsomal membranes; test: Substrate kinetics/activity: formation of N-[3H]-AFC from peptide substrates by calf liver microsomal protease; design: key to substrate activity (Table 1, in words): Analogs referred to as inactive did not show detectable activity as substrate when used at concentration of 10mM and prolonged incubation time (16 hours); weakly active: Where marginal activity is noted, detectable activity is observed under prolonged incubation periods, but the activity is <5% that observer, with AFC-V-I-S; settings: for substrate activity for the protease (in words): calf liver microsomal preparation; for substrate activity (Table 1, in words): 10mM, prolonged incubation time (16 hours)
Procedure: Briefly, N-[^3 H]-Acetyl-S-farnesyl-L-cys-L-val-L-ile-L-ser or N-[^3 H]acetyl-S-farnesyl-(SEQ ID NO: 1) at a concentration of 10 μM was incubated with bovine liver microsomal membranes (preparation described below). Periodically, 50 μL aliquots were withdrawn from the incubation mixture and the reaction was quenched with 500μL of chloroform/methanol (1:1, v/v). N-[^3 H]-AFC was extracted after thoroughly mixing the mixture for 1 minute and extracting with chloroform. Phase separation was achieved by adding 500μL of 1M citric acid. The chloroform layer was evaporated under nitrogen, resuspended in hexane/isopropanol/TFA (85:15:0.1), and authentic AFC standard was added for detection at 210 nm. The sample was injected on a silica HPLC column (Dynamax 60A, Rainin, Woburn, Mass.) and eluted with the same solvent. Radioactivity was counted with an on-line Berthold (Nashua, N.H.) LB 506-C HPLC radioactivity monitor.
(§1) Measurement of Proteolytic Activity Bovine liver microsomes were prepared according to Walter et al. (Meth. Enzym. 96:84, 1983). Kinetic measurements were performed by incubating 0.2 mg/mL protein with peptide substrates in 200 mM HEPES buffer containing 100 mM NaCl and 5 mM MgCl2 at pH 7.4, all in a final volume of 50 μL. The peptide substrates were added in DMSO to a final concentration of 4% (v/v) at 37°. The enzymatic reaction was quenched at the appropriate time by the addition of 0.5 mL of chloroform/methanol (1/1, v/v). Phase separation was achieved by adding 0.5 mL 1M citric acid. The chloroform layer was separated and evaporated under nitrogen and the residue was dissolved in n-hexane/2-propanol/TFA containing cold AFC. The formation of the product ^3 H-AFC was followed by HPLC analysis at 210 nm according to Perez-Sala et al. (Proc. Nat'l Acad. Sci. USA 88:3043, 1991). The samples were injected onto a normal phase HPLC column (Dynamax 60, Rainin, Woburn, Mass.) connected to a model LB 506-C on-line radioactivity monitor (Berthold, Nashua, N.H.). The column was eluted with n-hexane/2-propanol/TFA [85:15:0.1 (v/v/v)] at 1.5 mL/min.
For these experiments the substrates were dissolved in DMSC and incubated with calf liver microsomal membranes (0.2 mg of protein/mL) (Walter et al., supra) as described above. The amount of radioactive product was determined as described above. The reaction was quenched with 500 μL of CHCl3 /MeOH (1:1, v/v), and the radioactive N-terminal amino acid, i.e. N-[^3 H]AFC, was extracted after thoroughly agitating this mixture. Phase separation was achieved by adding 500 μL of 1M citric acid. After the chloroform layer was evaporated under nitrogen the residue was resuspended in n-hexane/isopropanol/TFA (90:10:0.01) and non-radioactive AFC was added as a standard for UV detection (210 nm). The sample was injected on a normal-phase HPLC column (Dynamax 60A, Rainin), and elution was performed with the same solvent at flow rate l.5 ml/min. Radioactivity was counted with an on-line Berthold (Nashua, NH) LB 506-C HPLC radioactivity monitor. The limit of efficiency of this assay was 3× the background counts/min (~150 cpm), which permits detection of products from substrates whose activities are 0.4% of the Vmax of AFC-Val-Ile-Ser (SEQ ID NO: 1) (1.13 pmol/min/mg). The retention times for AGC, AFC, and AGGC are 7.58, 7.26, and 7.00 min respectively, and for AGC-Val-Ile, AFC-Val-Ile, and AGGC-Val-Ile, they are 5.48, 6.54, and 5.08 min respectively.

[2] = test system: proteolytic enzymatic activity in dog pancreatic microsomes; test: Proteolysis of tetrapeptide by dog pancreatic microsomes, extended incubation; settings: extended incubation conditions
Procedure: A similar stereospecific proteolytic enzymatic activity was also found in dog pancreatic microsomes. Under extended incubation conditions, where 54% of the tetrapeptide substrate 1 was cleaved by these microsomes, no proteolysis of D-AFC-val-ile-ser 2 could be detectec, (<1%). […] Synthesis of N-[^3 H]-acetyl-S-all-trans-farnesyl-L-Cys-L-Val-L-Ile-L-Ser or N-[^3 H]acetyl-S-farnesyl-(SEQ ID NO: 1) A solution of N-[^3 H]-acetyl-S-all-trans-farnesyl-L-Cys-L-Val-L-Ile (1.12 μmol, 250 mCi/mmol), L-serine hydrochloride methyl ester (20 mg, 0.13 mmol), and 1-hydroxybenzotriazole hydrate (17.4 mg, 0.13 mmol) in 3 mL of DMF was cooled to 0° C. 1-(3-Dimethylamino)propyl-3-ethyl carbodiimide hydrochloride (17.2 mg, 0.09 mmol) and N-methylmorpholine (14.1 μL, 13 mg, 0.13 mmol) were added at 0° C. The mixture was stirred at 0° C. under argon for 2 hours and at room temperature for 24 hours. Water (20 mL) was added and the mixture was extracted with ethyl acetate (4×20 mL). The combined organic layer was washed with 10% HCl, saturated sodium bicarbonate, and water, dried over anhydrous magnesium sulfate, filtered, and evaporated. The residue was dissolved in 3 mL of acetonitrile and 3 mL of 10% aqueous sodium carbonate was added. The mixture was stirred at room temperature for 24 h. 10% HCl was added to adjust the pH to 2. […] Recovery of radioactivity was 28.2 μCi, 1.13×10^-4 mmol. […]

[3] = test system: protease of bovine liver microsomal membranes; test: Inhibition of proteolysis of [3H]-AFC-val-ile-ser by calf liver microsomal protease; settings: 4 μM [3H]-AFC-val-ile-ser substrate; 20 μM of the dipeptide or tripeptide
Procedure: as §1
As expected, the proteolysis of [^3 H]-AFC-val-ile-ser or N-[^3 H]-(SEQ ID NO: 1) was inhibited by the dipeptide substrate (AFC-val) and by the tripeptide substrate (AFC-val-ile). […]

[4] = Table 1, substrate of the protease, calf liver microsomal membranes, average of two determinations ±S.D., same enzyme preparation
[5] = Table 1, substrate of the protease, calf liver microsomal membranes, average of two determinations ±S.D., same enzyme preparation, read-out: KM
[6] = substrate of the protease, liver microsomal membranes, read-out: KM

Molecule: CC(=O)N[C@@H](CSC/C=C(\C)CC/C=C(\C)CCC=C(C)C)C(N)=O [AFC amide]
- substrate activity for the protease (in words) [1]: not a substrate

Molecule: N-Ac-S-all-trans-farnesyl-D-Cys-L-Val-L-Ile [AFC-Val-Ile (6)]
- substrate activity (Table 1, in words) ([1]; Table 1): inactive

Molecule: N-[^3 H]-Acetyl-L-Cys-L-Val-L-Ile [Cys-Val-Ile (4)]
- substrate activity (Table 1, in words) ([1]; Table 1): inactive
- substrate activity for the protease (in words) [1]: Neither analog was measurably processed

Molecule: N-[^3 H]-Acetyl-S-all-trans-geranylgeranyl-D-cys-L-Val-L-Ile [AGGC-Val-Ile (2) D-L-L]
- substrate activity (Table 1, in words) ([1]; Table 1): inactive
- substrate activity for the protease (in words) [1]: no measurable protease activity

- Km [1, 5]: 4.01 ± 0.4 µM
- Km [1, 6]: 14.6 µM
Molecule: N-[^3 H]-Acetyl-S-all-trans-geranylgeranyl-L-Cys-L-Val-L-Ile [AGGC-Val-Ile (2)]
- Vmax [1, 4]: 26.20 ± 0.97 pmol/min/mg
- substrate activity for the protease (in words) [1]: good substrates
- Vmax ([1]; substrate of the protease): 19.35 pmol/min/mg

Molecule: N-[^3 H]-Acetyl-S-thio-t-butyl-L-Cys-L-Val-L-Ile [t-butylthio-Cys-Val-Ile (5)]
- substrate activity (Table 1, in words) ([1]; Table 1): inactive
- substrate activity for the protease (in words) [1]: Neither analog was measurably processed

Molecule: N-[^3 H]-acetyl-S-all-trans-farnesyl-D-Cys-L-Val-L-Ile-L-Ser [D-AFC-val-ile-ser]
- substrate activity for the protease (in words) [1]: did not occur
- tetrapeptide cleaved [2]: < 1%

Molecule: N-[^3 H]-acetyl-S-all-trans-farnesyl-L-Cys-L-Val-D-Ile [AFC-Val-Ile (8)]
- substrate activity (Table 1, in words) ([1]; Table 1): inactive
- substrate activity for the protease (in words) [1]: did not have substrate activity

Molecule: N-[^3 H]-acetyl-S-all-trans-farnesyl-L-Cys-L-Val-L-Ile-D-Met ({(3H)‑acetyl}-C(Farnesyl)VI[dM]) [AFC-Val-Ile-Met (10)]
- substrate activity (Table 1, in words) ([1]; Table 1): weakly active (Where marginal activity is noted, detectable activity is observed under prolonged incubation periods, but the activity is <5% that observer, with AFC-V-I-S)
- substrate activity for the protease (in words) [1]: processed to some extent

- Km [1, 5]: 2.96 ± 0.35 µM
Molecule: N-[^3 H]-acetyl-S-all-trans-farnesyl-L-Cys-L-Val-L-Ile-L-Met (C(Farnesyl)VIM; not fully specified (N-terminus); printed as N-[^3 H]-acetyl-S-all-trans-farnesyl-L-Cys-L-Val-L-Ile-L-Met; also: tritium label on the N-acetyl) [AFC-Val-Ile-Met (9)]
- Vmax [1, 4]: 126.3 pmol/min/mg
- substrate activity for the protease (in words) [1]: good substrate

Molecule: N-acetyl-S-all-trans-farnesyl-D-Cys-D-Val-L-Ile [D-D-L]
- substrate activity for the protease (in words) [1]: inactive

Molecule: N-acetyl-S-all-trans-farnesyl-L-Cys-D-Val-L-Ile [AFC-Val-Ile (7)]
- substrate activity (Table 1, in words) ([1]; Table 1): inactive
- substrate activity for the protease (in words) [1]: did not have substrate activity

- Km [1, 6]: 4.8 µM
Molecule: N-acetyl-S-farnesyl-L-cysteine-L-val-L-ile-L-ser [AFC-val-ile-ser]
- Vmax ([1]; bovine liver microsomal membranes): 0.236 ± 0.008 nmol/min/mg protein
- tetrapeptide cleaved [2]: 54%

Molecule: N-acetyl-S-trans-geranyl-D-Cys-L-Val-Ile [AGC-Val-Ile (3) D-L-L]
- substrate activity (Table 1, in words) ([1]; Table 1): inactive
- substrate activity for the protease (in words) [1]: no measurable protease activity

- Km [1, 5]: 14.6 ± 2.14 µM
Molecule: N-acetyl-S-trans-geranyl-L-Cys-L-Val-L-Ile [AGC-Val-Ile (3)]
- Vmax [1, 4]: 19.35 ± 1.12 pmol/min/mg
- substrate activity for the protease (in words) [1]: good substrates

- Km ([1]; former measurement on a different microsome preparation from a different animal, read-out: KM, previously measured): 12.6 µM
- Km [1, 6]: 9.2 ± 0.21 µM
Molecule: acetyl-S-all-trans-farnesyl-L-Cys-Val-Ile [AFC-Val-Ile (1)]
- Vmax [1, 4]: 57.7 ± 5 pmol/min/mg
- Vmax, previously measured ([1]; former measurement on a different microsome preparation from a different animal): 65.6 pmol/min/mg
- Vmax ([1]; substrate of the protease): 58 ± 4.9 pmol/min/mg
- diminution in substrate cleavage [3]: approximately 50%
